# Experimental data from patent US9512107B2, “Therapeutically active compositions and their methods of use” (Agios Pharmaceuticals, Inc., priority 2012, dated 2016).
# Positions count from the first letter of the chain named. pIC50: −log10 of the molar value.
# How the values were obtained:
# [1] = biological target: T1, IDH2 R172K (Homo sapiens, UniProt P48735, R172K); assay: IDH2 R172K enzymatic assay (NADPH cofactor depletion, diaphorase/resazurin readout); format: biochemical; conditions: read-out: Enz R172K
# T1 sequence (P48735 40-452 R172K): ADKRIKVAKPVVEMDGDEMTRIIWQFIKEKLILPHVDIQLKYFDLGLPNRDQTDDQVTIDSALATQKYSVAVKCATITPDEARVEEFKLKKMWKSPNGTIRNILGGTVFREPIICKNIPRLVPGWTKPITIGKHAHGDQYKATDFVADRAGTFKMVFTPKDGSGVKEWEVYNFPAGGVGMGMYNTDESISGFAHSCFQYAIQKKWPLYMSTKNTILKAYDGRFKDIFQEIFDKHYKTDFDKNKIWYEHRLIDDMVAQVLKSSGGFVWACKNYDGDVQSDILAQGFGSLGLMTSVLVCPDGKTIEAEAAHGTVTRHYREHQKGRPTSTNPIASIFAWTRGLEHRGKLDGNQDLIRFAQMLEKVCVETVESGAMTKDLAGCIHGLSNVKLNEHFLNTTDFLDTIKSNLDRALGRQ
# Outline: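 Cofactor depletion format: enzyme + compound 1 h RT; add substrate mix (50 μM NADPH, 6.3 mM α-KG); react 1 h RT; quench with stop mix (36 μg/ml diaphorase, 60 μM resazurin); read resorufin fluorescence as residual NADPH.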
# [2] = biological target: T2, IDH2 R140Q (Homo sapiens, UniProt P48735, R140Q); assay: IDH2 R140Q enzymatic assay (cofactor depletion, similar format); format: biochemical; conditions: read-out: Enz R140Q
# T2 sequence (P48735 40-452 R140Q): T1 sequence (P48735 40-452 R172K) with R101Q, K133R
# [3] = tested on: U87MG pLVX-IDH2 R140Q-neo cells; assay: U87MG pLVX-IDH2 R140Q-neo cell based assay, 2-HG in media by LC-MS at 48 hours; conditions: Homo sapiens, U-87 MG
# Outline: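 2-HG secreted into the medium was measured by LC-MS after 48 h of compound treatment (0.2% DMSO final) of U87MG pLVX-IDH2 R140Q-neo cells in DMEM/10% FBS. The same wells were assayed at 72 h by CellTiter-Glo luminescence for effects on growth.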
smiles,measurement,setting,value
"CC(Nc1nc(Nc2ccncc2)nc(-c2ccccc2)n1)C1CC1 (stereo not drawn) [Compound 257, N^2-(1-cyclopropylethyl)-6-phenyl-N^4-(pyridin-4-yl)-1,3,5-triazine-2,4-diamine]",pIC50,[1],6.00 to 7.00
same,pIC50,[2],> 7.00
same,pIC50,[3],6.00 to 7.00
"CC(C)COC(=O)Nc1nc(Nc2ccccc2)nc(-c2ccccc2)n1 [Compound 179, Isobutyl 4-phenyl-6-(phenyl-amino)-1,3,5-triazin-2-ylcarbamate]",pIC50,[1],> 7.00
same,pIC50,[2],> 7.00
same,pIC50,[3],> 7.00
"CCNc1cc(Nc2nc(NC(C)C)nc(-c3ccccc3)n2)ccn1 [Compound 224, N^2-(2-(ethylamino)pyridin-4-yl)-N^4-isopropyl-6-phenyl-1,3,5-triazine-2,4-diamine]",pIC50,[1],6.00 to 7.00
same,pIC50,[2],> 7.00
same,pIC50,[3],6.00 to 7.00
"CC(C)Nc1nc(Nc2cncc(Cl)c2)nc(-c2ccccc2)n1 [Compound 194, N^2-(5-chloropyridin-3-yl)-N^4-isopropyl-6-phenyl-1,3,5-triazine-2,4-diamine]",pIC50,[1],> 7.00
same,pIC50,[2],> 7.00
same,pIC50,[3],> 7.00
"CCS(=O)(=O)c1cccc(Nc2nc(NC(C)C)nc(-c3ccccc3)n2)c1 [Compound 205, N^2-(3-(ethylsulfonyl)phenyl)-N^4-isopropyl-6-phenyl-1,3,5-triazine-2,4-diamine]",pIC50,[1],6.00 to 7.00
same,pIC50,[2],> 7.00
same,pIC50,[3],> 7.00
"CC(C)Nc1nc(Nc2cc(F)cc(F)c2)nc(-c2ncccc2F)n1 [Compound 459, N-(3,5-Difluoro-phenyl)-6-(3-fluoro-pyridin-2-yl)-N′-isopropyl-[1,3,5]triazine-2,4-diamine]",pIC50,[1],> 7.00
same,pIC50,[2],> 7.00
same,pIC50,[3],> 7.00
CC(C)Nc1nc(Nc2cccc(CO)c2)nc(-c2ccccc2)n1 [Compound 150],pIC50,[1],5.00 to 6.00
same,pIC50,[2],6.00 to 7.00
same,pIC50,[3],6.00 to 7.00
CC(C)Nc1nc(Nc2ccccc2)nc(-c2ccccc2C#N)n1 [Compound 139],pIC50,[1],5.00 to 6.00
same,pIC50,[2],> 7.00
same,pIC50,[3],6.00 to 7.00
"Fc1ccccc1-c1nc(Nc2ccnc(C(F)(F)F)c2)nc(NC2COC2)n1 [Compound 627, 6-(2-Fluoro-phenyl)-N-oxetan-3-yl-N′-(2-trifluoromethyl-pyridin-4-yl)-[1,3,5]triazine-2,4-diamine]",pIC50,[1],> 7.00
same,pIC50,[2],> 7.00
same,pIC50,[3],> 7.00
"c1ccc(Nc2nc(NC3CCOC3)nc(-c3ccccc3)n2)cc1 (stereo not drawn) [Compound 174, N^2,6-diphenyl-N^4-(tetrahydrofuran-3-yl)-1,3,5-triazine-2,4-diamine]",pIC50,[1],6.00 to 7.00
same,pIC50,[2],> 7.00
same,pIC50,[3],> 7.00
"CC(C)(C)CNc1nc(Nc2ccncc2)nc(-c2ccccc2)n1 [Compound 191, N^2-neopentyl-6-phenyl-N^4-(pyridin-4-yl)-1,3,5-triazine-2,4-diamine]",pIC50,[1],6.00 to 7.00
same,pIC50,[2],> 7.00
same,pIC50,[3],> 7.00
"CC(C)Nc1nc(Nc2ccnc(C(F)(F)F)c2)nc(-c2cccc(=O)[nH]2)n1 [Compound 650, 6-(4-(isopropylamino)-6-((2-(trifluoromethyl)pyridin-4-yl)amino)-1,3,5-triazin-2-yl)pyridin-2(1H)-one]",pIC50,[1],5.00 to 6.00
same,pIC50,[2],6.00 to 7.00
same,pIC50,[3],6.00 to 7.00
"CC(C)Nc1nc(Nc2ccnc(C(C)(F)F)c2)nc(-c2cccc(Cl)n2)n1 [Compound 513, 6-(6-Chloro-pyridin-2-yl)-N-[2-(1,1-difluoro-ethyl)-pyridin-4-yl]-N′-isopropyl-[1,3,5]triazine-2,4-diamine]",pIC50,[1],6.00 to 7.00
same,pIC50,[2],5.00 to 6.00
same,pIC50,[3],> 7.00
"Nc1cccc(-c2nc(NCC(F)(F)F)nc(Nc3cc(F)cc(F)c3)n2)n1 [Compound 491, 6-(6-aminopyridin-2-yl)-N2-(3,5-difluorophenyl)-N4-(2,2,2-trifluoroethyl)-1,3,5-triazine-2,4-diamine]",pIC50,[1],> 7.00
same,pIC50,[2],6.00 to 7.00
same,pIC50,[3],> 7.00
O=C(Cc1ccccc1)Nc1nc(Nc2ccccc2)nc(-c2ccccc2)n1 [Compound 172],pIC50,[1],6.00 to 7.00
same,pIC50,[2],> 7.00
same,pIC50,[3],6.00 to 7.00
"CC(C)Nc1nc(Nc2ccnc(C(F)(F)F)c2)nc(-c2nccc(C(F)(F)F)n2)n1 [Compound 522, N2-isopropyl-N4-(2-(trifluoromethyl)pyridin-4-yl)-6-(4-(trifluoromethyl)pyrimidin-2-yl)-1,3,5-triazine-2,4-diamine]",pIC50,[1],6.00 to 7.00
same,pIC50,[2],6.00 to 7.00
same,pIC50,[3],> 7.00
"FC1(F)CC(Nc2nc(Nc3ccncc3)nc(-c3ccccc3)n2)C1 [Compound 253, N^2-(3,3-difluorocyclobutyl)-6-phenyl-N^4-(pyridin-4-yl)-1,3,5-triazine-2,4-diamine]",pIC50,[1],6.00 to 7.00
same,pIC50,[2],> 7.00
same,pIC50,[3],> 7.00
"Fc1ccc(Nc2nc(NC3C4COCC43)nc(-c3cccc(Cl)n3)n2)cn1 (stereo not drawn) [Compound 512, 6-(6-Chloro-pyridin-2-yl)-N-(6-fluoro-pyridin-3-yl)-N′-(3-oxa-bicyclo[3.1.0]hex-6-yl)-[1,3,5]triazine-2,4-diamine]",pIC50,[1],6.00 to 7.00
same,pIC50,[2],6.00 to 7.00
same,pIC50,[3],> 7.00
"OC1CC1Nc1nc(Nc2ccnc(C(F)(F)F)c2)nc(-c2cccc(C(F)(F)F)n2)n1 (stereo not drawn) [Compound 568, 2-[4-(6-Trifluoromethyl-pyridin-2-yl)-6-(2-trifluoromethyl-pyridin-4-ylamino)-[1,3,5]triazin-2-ylamino]-cyclopropanol]",pIC50,[1],6.00 to 7.00
same,pIC50,[2],6.00 to 7.00
same,pIC50,[3],> 7.00
"CC(C)Nc1nc(Nc2ccnc(C(F)F)c2)nc(-c2cccc(C(F)F)n2)n1 [Compound 673, 6-(6-Difluoromethyl-pyridin-2-yl)-N-(2-difluoromethyl-pyridin-4-yl)-N′-isopropyl-[1,3,5]triazine-2,4-diamine]",pIC50,[1],> 7.00
same,pIC50,[2],6.00 to 7.00
same,pIC50,[3],> 7.00
"CC(C)Nc1nc(Nc2cc(F)cc(F)c2)nc(-c2nc(O)ccc2F)n1 [Compound 469, 6-[4-(3,5-Difluoro-phenylamino)-6-isopropylamino-[1,3,5]triazin-2-yl]-5-fluoro-pyridin-2-ol]",pIC50,[1],> 7.00
same,pIC50,[2],> 7.00
same,pIC50,[3],> 7.00
CC(C)Nc1nc(Nc2ccccc2)nc(-c2ccc(Cl)cc2)n1 [Compound 122],pIC50,[1],5.00 to 6.00
same,pIC50,[2],6.00 to 7.00
same,pIC50,[3],5.00 to 6.00
"Cc1nc(-c2nc(Nc3cc(F)cc(F)c3)nc(NC(C)C)n2)co1 [Compound 476, N-(3,5-Difluoro-phenyl)-N′-isopropyl-6-(2-methyl-oxazol-4-yl)-[1,3,5]triazine-2,4-diamine]",pIC50,[1],6.00 to 7.00
same,pIC50,[2],> 7.00
same,pIC50,[3],> 7.00
CC(C)Nc1nc(Nc2cccc(C#N)c2)nc(-c2ccccc2)n1 [Compound 130],pIC50,[1],6.00 to 7.00
same,pIC50,[2],> 7.00
same,pIC50,[3],> 7.00
"CC(C)Nc1nc(Nc2cncc(F)c2)nc(-c2ncccc2F)n1 [Compound 456, N-(5-Fluoro-pyridin-3-yl)-6-(3-fluoro-pyridin-2-yl)-N′-isopropyl-[1,3,5]triazine-2,4-diamine]",pIC50,[1],6.00 to 7.00
same,pIC50,[2],6.00 to 7.00
same,pIC50,[3],> 7.00
"CC1(CNc2nc(Nc3ccnc(C(F)(F)F)c3)nc(-c3cccc(C(F)(F)F)n3)n2)COC1 [Compound 550, N-(3-Methyl-oxetan-3-ylmethyl)-6-(6-trifluoromethyl-pyridin-2-yl)-N′-(2-trifluoromethyl-pyridin-4-yl)-[1,3,5]triazine-2,4-diamine]",pIC50,[1],> 7.00
same,pIC50,[2],6.00 to 7.00
same,pIC50,[3],> 7.00
"O=C(Nc1nc(Nc2ccccc2)nc(-c2ccccc2)n1)OCC1CC1 [Compound 232, cyclopropylmethyl 4-phenyl-6-(phenylamino)-1,3,5-triazin-2-ylcarbamate]",pIC50,[1],6.00 to 7.00
same,pIC50,[2],> 7.00
same,pIC50,[3],6.00 to 7.00
CC(C)Nc1nc(Nc2ccccc2)nc(-c2ccnn2C)n1 [Compound 119],pIC50,[1],< 5.00
same,pIC50,[2],6.00 to 7.00
same,pIC50,[3],5.00 to 6.00
"CC(C)Nc1nc(Nc2ccnc(C(F)(F)F)c2)nc(-c2cc(O)cc(F)c2)n1 [Compound 658, 3-Fluoro-5-[4-isopropylamino-6-(2-trifluoromethyl-pyridin-4-ylamino)-[1,3,5]triazin-2-yl]-phenol]",pIC50,[1],> 7.00
same,pIC50,[2],6.00 to 7.00
same,pIC50,[3],> 7.00
"c1ccc(Nc2nc(NC3COC3)nc(-c3ccccc3)n2)cc1 [Compound 175, N^2-(oxetan-3-yl)-N^4,6-diphenyl-1,3,5-triazine-2,4-diamine]",pIC50,[1],6.00 to 7.00
same,pIC50,[2],> 7.00
same,pIC50,[3],> 7.00
